Source: US20160175401A1, “COMPOITIONS AND METHODS FOR MODULATING THERMOGENESIS USING PTH-RELATED AND EGF-RELATED COMPOUNDS” (DANA-FARBER CANCER INSTITUTE INC., priority 2013, published 2016)

How the values were obtained:
PTH1R [1] = target: T1, PTH1R (Homo sapiens, UniProt Q03431); conditions: Dean et al., Hoare et al.; cited from earlier work
T1 sequence (Q03431 27-593): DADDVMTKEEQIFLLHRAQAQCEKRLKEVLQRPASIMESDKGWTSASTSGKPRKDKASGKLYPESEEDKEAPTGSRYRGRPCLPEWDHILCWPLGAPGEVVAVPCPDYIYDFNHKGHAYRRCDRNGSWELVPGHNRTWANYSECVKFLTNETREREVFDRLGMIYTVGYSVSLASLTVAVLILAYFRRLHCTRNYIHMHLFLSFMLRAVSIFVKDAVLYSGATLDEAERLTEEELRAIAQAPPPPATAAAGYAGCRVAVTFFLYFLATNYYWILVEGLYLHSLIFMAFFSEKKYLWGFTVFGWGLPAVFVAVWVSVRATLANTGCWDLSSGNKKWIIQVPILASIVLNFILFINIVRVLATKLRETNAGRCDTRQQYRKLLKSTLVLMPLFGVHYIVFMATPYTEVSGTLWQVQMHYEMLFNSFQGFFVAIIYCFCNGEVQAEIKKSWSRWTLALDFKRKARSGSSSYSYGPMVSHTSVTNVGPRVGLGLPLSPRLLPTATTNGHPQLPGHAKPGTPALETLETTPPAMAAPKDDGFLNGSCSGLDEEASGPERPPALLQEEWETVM

primary white adipocytes [2] = test: Thermogenic gene expression (qRT-PCR) in primary white adipocytes; type: cell-based, mouse; conditions: for thermogenic effects (thermogenic gene expression): 1 μg/ml, 4 hours, primary white adipocytes (FIG. 8A-8C)
Description: Inguinal SV fractions were obtained from 30-35 days-old male mice by the following procedure. Inguinal fat tissue was dissected, washed with PBS, minced and digested for 45 min at 37° C. in PBS containing 10 mM CaCl, 2.4 U/mL dispase II (Roche), and 1.5 U/mL collagenase D (Roche). Digested tissue was filtered through a 100-μm cell strainer and centrifuged at 600 g for 5 min to pellet the SV cells which were then resuspended in SV culture medium (DMEM/F12 [1:1; Invitrogen] plus glutamax, pen/strep, and 10% FBS), filtered through a 40-μm cell strainer, centrifugation as above, resuspended in SV culture medium and plated. SV cells were grown to confluency for adipocyte differentiation which was induced by the adipogenic cocktail containing 1 μM dexamethasone, 5 μg/mL insulin, […] isobutylmethylxanthine (DMI), and 1 μM rosiglitazone in SV culture medium. 2 days after induction, cells were maintained in SV culture medium containing 5 μg/mL insulin and 1 μM rosiglitazone. Starting at day 6, cells were maintained in SV culture medium only and treated with various molecules for […] and harvested at day 8.
LLC cells were maintained in DMEM (Invitrogen) with 10% FBS and pen/strep. For conditioned media collection, cells were plated at ⅓ confluency. The following day, medium is changed to FreeStyle expression medium (Invitrogen) which was collected 24 hours later. For concentration of expression medium, LLC conditioned media was filtered using a 3 kilodalton (Kd) cut-off filter (Millipore). Adipocytes were maintained in SV culture media (DMEM/F12 [1:1; Invitrogen] plus glutamax, pen/strep, and 10% FBS) and conditioned media treatment experiments were performed 7 days post-differentiation. When adipocytes were treated with conditioned media for 24 hours, the treatment media were composed of 50% SV culturing medium and 50% LLC conditioned media. When conditioned medium was filtered and concentrated, adipocytes were exposed to 90% SV culturing medium and 10% concentrated LLC conditioned media.
(§1) RNA was extracted from cultured cells or frozen tissue samples using TRIzol (Invitrogen), purified with Qiagen RNAeasy minicolums and reverse transcribed using High Capacity cDNA Reverse Transcription kit (Applied Biosystems). Resulting cDNA was analyzed by RT-qPCR. Briefly, 25 ng of cDNA and […] of each primer were mixed with SYBR® GreenER™ PCR Master Mix (Invitrogen). Reactions were performed in 384-well format using an ABI PRISM® 7900HT instrument (Applied Biosystems). Relative mRNA levels were calculated using the comparative CT method normalized to cyclophilin.
Inguinal stroma-vascular fractions were obtained from 30-35-day-old male mice using the following procedure: Inguinal fat tissue was dissected, washed with PBS, minced and digested for 45 min at 37° C. in PBS containing 10 mM CaCl2, 2.4 Uml^−1 dispase 11 (Roche) and 1.5 U ml^−1 collagenaseD (Roche). Digested tissue was filtered through a 100-μm cell strainer and centrifuged at 600 g for 5 min to pellet the stroma-vascular cells. The pellets were then resuspended in adipocyte culture medium (DMEM/F2 (1:1, Invitrogen) plus GlutaMAX, penicillin and streptomycin, and 10% FBS), filtered through a 40-μm cell strainer, centrifuged as above, resuspended in adipocyte culture medium and plated. The stroma-vascular cells were grown to confluence for adipocyte differentiation, which was induced by an adipogenic cocktail containing 1 μM dexamethasone, 5 μg ml^−1 insulin, […] isobutylmethylxanthine (DMI) and 1 μM rosiglitazone in adipocyte culture medium. Two days after induction, cells were maintained in adipocyte culture medium containing 5 μg ml^−1 insulin and 1 μM rosiglitazone. Starting on day 6, cells were maintained in adipocyte culture medium only and treated with various molecules for 2-24 h and harvested on day 8.
LLC cells were maintained in DMEM (Invitrogen) with 10% FBS, and penicillin and streptomycin. For conditioned medium collection, cells were plated at a 1:3 confluence.

PTH1R [3] = target: T1, PTH1R; conditions: cited from earlier work
primary white adipocytes [4] = test: Cellular oxygen consumption rate (XF24 Extracellular Flux Analyzer, Seahorse) of primary adipocytes; type: cell-based, mouse; conditions: for uncoupled respiration and maximal respiration potential: 24 hour treatment, norepinephrine 100 nM, peptides 100 ng/mL, SeaHorse (FIG. 8D)
Description: The cellular oxygen consumption rate (OCR) of primary adipocytes was determined using an XF24 Extracellular Flux Analyzer (Seahorse Bioscience). […] Twenty-four hours later, adipocyte culture medium was changed to DMEM lacking NaHCO3 but containing 10 mM glucose, 1 mM pyruvate and the treatment chemicals. The uncoupled and maximal OCRs were determined using […] (carbonyl cyanide p-trifluoromethoxyphenylhydrazone), respectively. Complex-1-dependent respiration was inhibited with 3 μM rotenone. Ex vivo tissue respiration was measured using a Clark electrode (Strathkelvin Instruments) as described in Cohen et al. (2014) Cell 156:304-316. Freshly isolated tissues were briefly minced and transferred to the electrode chamber containing a respiration buffer consisting of 1×DPBS (Delbecco's phosphate-buffered saline), 2% BSA, 25 mM glucose and 1 mM pyruvate. Oxygen consumption values were normalized to tissue weight.

primary brown adipocytes = test: Thermogenic gene expression (qRT-PCR) in primary brown adipocytes; type: cell-based, mouse
Description: as §1

Substance: PTH (1-34): Synthetic peptide rat PTH(1-34) (Ala32-Phe65; Catalog No. H-5460), purchased from Bachem
- binding in the absence of G protein coupling (RO conformational state) (PTH1R [1]): only slightly decreased
- thermogenic gene expression (primary white adipocytes [2]; 100 ng ml^−1 peptide, 2 h, primary white adipocytes (FIG. 21B)): stimulated thermogenic gene expression
- thermogenic effects (thermogenic gene expression) (primary white adipocytes [2]): thermogenic effects
- thermogenic effects (thermogenic gene expression) (primary white adipocytes [2]; listed as PTH): powerful inducers of thermogenic gene expression
- duration of cAMP signal after ligand wash-out (PTH1R [3]; Dean et al. (2008)): longer lasting cAMP signal
- potency for activating cAMP signaling (PTH1R [3]; Juppner et al. (1991)): equally potent for activating cAMP signaling
- oxygen consumption, including basal, uncoupled and maximal respiration (primary white adipocytes [4]; 100 nM NE, 100 ng ml^−1 PTHrP or PTH, 24 h (FIG. 23C)): significantly raised oxygen consumption
- uncoupled respiration and maximal respiration potential (primary white adipocytes [4]): significantly elevate
- uncoupled respiration and maximal respiration potential (primary white adipocytes [4]; listed as PTH): powerful inducers
- thermogenic gene expression (primary brown adipocytes; 100 ng ml^−1 peptide, 2 h, primary brown adipocytes (FIG. 20D)): stimulated thermogenic gene expression
- thermogenic effects (thermogenic gene expression) (primary brown adipocytes; 1 μg/ml, primary brown adipocytes (FIG. 9A)): thermogenic effects
